Data: patent publication US5366983A, “Use of quaternary ammonium compounds to remove salmonella contamination from meat products” (The Board of Trustees of The University of Arkansas, priority 1992, dated 1994)
“Also recorded” adds a separate entry of the source. Read-outs that look alike come from different tables or passages of the source.

Assays:
[1] = test system: Salmonella typhimurium TA100; assay: Salmonella reversion assay, TA100
Method: (§1) Test strains TA98 and TA100 were obtained from Bruce N. Ames (University of California, Berkley, Calif.). Mutagenicities were determined both in the absence of and in the presence of a mammalian liver S9 activating system. S9 is the 9000×g supernatant prepared from liver homogenates from Aroclor 1254 stimulated male Sprague Dawley rats. The S9 was purchased from Molecular Toxicology, Inc. (Anapolis, Md.).
(§2) Bacterial broth cultures were grown overnight at 37° with shaking in Oxoid Broth #2. For assays in the absence of S9, a 0.5 ml aliquot of 100 mM Sodium Phosphate Buffer, pH 7.4, was added to sterile 13×100 mm capped culture tubes. For assays in the presence of S9, a 0.5 ml aliquot of 10% S9 mix was added. The S9 mix consisted of 8 mM magnesium chloride, 33 mM potassium chloride, 5 mM glucose-6-phosphate, 4 mM NADP, 100 mM sodium phosphate, pH 7.4 and S9 in a concentration of approximately 1.46 mg protein/ml.
(§3) The culture tubes were placed in an ice bath and 0.1 ml of the bacterial suspension and 0.1 ml of a DMSO solution of the test compound were added. The mixture was vortexed gently and incubated at 37° for 20 minutes with shaking in a water bath. Molten top agar (2.0 ml) containing 0.5 mM histidine HCl and 0.5 mM biotin were added, and the mixture was vortexed gently and poured onto a minimal glucose plate. After allowing the agar to solidify, the plates were inverted and placed in a 37° incubator in the dark for 48 hours. The revertant (mutant) colonies were counted and the background lawn was examined on all plates. A response that was two times that of the DMSO solvent control was considered a positive response.

[2] = test system: Salmonella typhimurium TA100; assay: Salmonella reversion assay after heating at 205° C., TA100; format: cell-based
Method: (§4) Test strains TA98 and TA100 were used. Again, mutagenicities were determined both in the absence and in the presence of the mammalian liver S9 activating system.
(§5) A response that was two times that of the solvent control was considered a positive response.

[3] = test system: Salmonella typhimurium TA98; assay: Salmonella reversion assay after heating at 205° C., TA98; format: cell-based
Method: as §4, §5

[4] = test system: Salmonella typhimurium TA98; assay: Salmonella reversion assay, TA98
Method: as §1, §2, §3

[5] = test system: Salmonella typhimurium ATCC 14028 attached to human buccal epithelial cells; format: cell-based; settings: for adherence, mean value of attached bacteria: Table A-1
Method: Studies were conducted on the attachment of Salmonella typhimurium to human buccal epithelial cells using the modified procedure of Boussard et al., International J. Pharmaceutics 53: 253-256 (1989). In this study, the activities of cationic and anionic surfactant compounds as well as certain chelating agents were compared on the detachment of S. typhimurium from epithelial cells.
To this end, bacteria were grown on nutrient agar for 16 hours at 37° C. The cells were suspended in 0.008 M phosphate buffered saline (PBS) at pH 7.2 and washed two times at 4500 rpm for 10 minutes. The last suspension was diluted in PBS to obtain a cell concentration of 0.5 to 1×10^9 cells/ml. Human epithelial cells were obtained by swabbing the buccal surface of a healthy, nonsmoking donor. […] The number of living cells was estimated and the suspension diluted to 0.5 to 1×10^5 cells/ml.
Next, the suspension of the human buccal cells was mixed with an equal volume of the bacterial suspension (3.0 ml), or PBS (0.8 ml). Contact was allowed for 1.5 hours at 35° C. under agitation. The mixtures were then centrifuged for 10 minutes at 4500 rpm. Each suspension, 1.0 ml, was transferred into Eppendorf vials and washed with PBS at 1500 rpm for 10 minutes. After the washing, the cells were treated with 1.0 ml PBS or 1.0 ml of the test chemical solution. Treatment was performed by suspending and vortexing on a low speed for 30 seconds followed by centrifugation at 1500 rpm for 10 minutes.
After the treatment, the cells were washed once with PBS and then 20 μl of erythrosin B was added to each vial. The suspension was centrifuged at 1500 rpm for 10 minutes, and the cells were washed twice under the same conditions. The final pellet was suspended in 300 μl of PBS. This suspension was spread out onto microscope slides and dried overnight at room temperature. After counter staining with methylene blue, the slides were microscopically examined under oil immersion.

[6] = test system: Salmonella typhimurium ATCC 14028; assay: Effect on viability of Salmonella in suspension (Tables D-1 to D-3); format: cell-based; settings: for bacterial viability: Table D-3
Method: EC50 values for four of the compounds were calculated from the bactericidal activity of the compounds as a function of molar concentration by a nonlinear regression algorithm.
In addition to the quaternary ammonium compounds, the antimicrobial activities of chelating agents Na2 -EDTA and EGTA were investigated. Na2 -EDTA was purchased from the Sigma Chemical Company (St. Louis, Mo.). Na2 -EDTA was dissolved in 0.04 M PPB prior to the assay and further dilutions were made in the same buffer.
EGTA was purchased from the Aldrich Chemical Company (Milwaukee, Wis.). EGTA was dissolved in 0.04 M PPB according to the procedure described by Harafuji and Ogawa (J. Biochem. 87:1305-1312 (1980)). After heating EGTA for 15 minutes at 80° C., the pH was adjusted to 7.0 by addition of NaOH. EGTA was filter-sterilized using a 0.2 μm Acro disc filter (Gelman Sciences; Ann Arbor, Mich.) prior to the assay. Further dilutions were made in sterile PPB.

[7] = test system: Salmonella typhimurium on chicken skin; assay: Effect of surfactants on Salmonella attached to chicken skin, drumsticks (Tables F1-F4); settings: 4° C.
Method: The following experiments utilizing chicken legs were conducted to determine the killing potential of a variety of surfactants against Salmonella on the skin and free in solutions. To this end, chicken legs obtained from the Department of Agriculture at the University of Arkansas, Fayetteville, were incubated for thirty minutes at room temperature with a 1:5000 dilution of Salmonella typhimurium. The chicken legs were removed five at a time and then rinsed twice in tap water to remove the unattached and excess Salmonella. The rinse water was sampled, diluted, and then plated onto XLD pour plates. […] The chicken legs were then removed and rinsed twice in tap water to remove the released Salmonella and excess chemicals. Rinses were then sampled, diluted, and then plated onto XLD pour plates.
The chicken legs were then individually washed with 100 ml sterile double distilled water, and then shaken fifty times. Samples of the wash H2 O were diluted and plated onto XLD pour plates. The chicken legs were further swabbed after the washing step above. The swabs were then plated onto the XLD plates. A set of wash samples were enriched with TT Broth Base Hajna and then plated onto XLD plates.
All of the samples were plated in 1 ml aliquots onto XLD pour plates. A positive control sample incubated in sterile double distilled water at 4° C. was run for each of the aforementioned conditions. Treatments occurred at both 4° C. and 25° C. The data is reported as the mean number of CFU/ml. The ratio in the table represents the number of chicken legs out of a sample of ten chicken legs producing the notated number of colonies, as indicated by the +, ++, +++, or ++++.

[8] = test system: Salmonella typhimurium on chicken skin; assay: Prevention of attachment of Salmonella on excised chicken skin (Table F5); settings: for CFU/ml on XLD agar: rinse water; for CFU/ml on XLD agar / Nitrocellulose lift (# of colonies): 30 minutes at room temperature; for Nitrocellulose lift (# of colonies): skin
Method: To determine the ability of surfactants to inhibit attachment or produce detachment of Salmonella, the following experiment was conducted. A hole was bored into the bottom of a 150 ml specimen cup. Chicken skin was excised from a drum stick and then placed over the cap of the specimen cup, and then the cap was screwed on. S. typhimurium was diluted 1:5000 with PBS or a surfactant. The surfactants were diluted appropriately. The skin was then inoculated with the solution containing the S. typhimurium and the surfactant for 30 minutes at room temperature.
Following incubation, the skin was washed. The rinse water was diluted appropriately in PBS and then plated onto XLD pour plates. The S. typhimurium was counted and reported as CFU/ml. The skin was swabbed so as to remove any remaining S. typhimurium using a nitroellulose lift and the CFU's/ml on the lift were also counted.

Row | Molecule | Enrichment, chicken legs out of ten ([7]; 0.1%) | Rinse H2O ([7]; 0.1%) | Surfactant Solution ([7]; 0.1%) | Swabs, chicken legs producing the notated number of colonies ([7]; 0.1%) | Swabs, colonies ([7]; 0.1%) | Wash H2O, chicken legs producing the notated number of colonies ([7]; 0.1%) | Wash H2O, colonies ([7]; 0.1%) | Enrichment, chicken legs out of ten ([7]; 0.5%) | Rinse H2O ([7]; 0.5%) | Surfactant Solution ([7]; 0.5%) | Swabs, chicken legs producing the notated number of colonies ([7]; 0.5%) | Swabs, colonies ([7]; 0.5%) | Enrichment, chicken legs out of ten ([7]; 1.0%) | Rinse H2O ([7]; 1.0%) | Surfactant Solution ([7]; 1.0%) | Swabs, chicken legs producing the notated number of colonies ([7]; 1.0%) | Swabs, colonies ([7]; 1.0%) | CFU/ml on XLD agar [8] | further results
1 | Nc1ccc2cc3ccccc3cc2c1 [2aminoanthracene, reference compound] | – | – | – | – | – | – | – | – | – | – | – | – | – | – | – | – | – | – | control reversion frequency ([1]; TA100, +S9, 2.5 μg/plate): 1497 ± 68 Revertants/plate; control reversion frequency ([2]; TA100, +S9, 2.5 μg/plate): 1103 ± 84 Revertants/plate; control reversion frequency ([3]; TA98, +S9, 2.5 μg/plate): 909 ± 85 Revertants/plate; control reversion frequency ([4]; TA98, +S9, 2.5 μg/plate): 901 ± 90 Revertants/plate
2 | CCCCCCCCCCCCCCCC[n+]1ccccc1 [CPB, cetylpyridinium bromide] | – | – | – | – | – | – | – | – | – | – | – | – | – | – | – | – | – | – | adherence, mean value of attached bacteria ([5]; 10 ug/ml): 28 ± 28; adherence, mean value of attached bacteria ([5]; 25 ug/ml): 23 ± 17; adherence, mean value of attached bacteria ([5]; 50 ug/ml): 25 ± 10
3 | O=C(O)CN(CCOCCOCCN(CC(=O)O)CC(=O)O)CC(=O)O [EGTA, reference compound] | – | – | – | – | – | – | – | – | – | – | – | – | – | – | – | – | – | – | effect on bacteria attached to the epithelial cells (in words) ([5]; chelating agents, Na2-EDTA at 1250 μg/ml): no significant effect; bacterial viability ([6]; 1,250 μg/ml): 1.55 ± 0.09 × 10^9 CFU/ml; bacterial viability ([6]; 2,500 μg/ml): 1.45 ± 0.03 × 10^9 CFU/ml; bacterial viability ([6]; 5,000 μg/ml): 1.51 ± 0.18 × 10^8 CFU/ml; bactericidal effect against S. typhimurium (in words) ([6]; viability testing in suspension): ineffective; also recorded: no bactericidal effect
4 | Benzalkonium Chloride [reference compound] | 1/10 | + (1-10) | 0 CFU/ml | 6/10 | + (1-10) | 4/10 | + (1-10) | 1/10 | 0 CFU/ml | 0 CFU/ml | 1/10 | + (1-10) | 0/10 | 0 CFU/ml | 0 CFU/ml | 1/10 | ++ (11-100) | 0 CFU/ml | Wash H2O, colonies ([7]; 0.5%): 0 CFU/ml; Wash H2O, colonies ([7]; 1.0%): 0 CFU/ml; Nitrocellulose lift (# of colonies) [8]: OG(R)
5 | O=C1NCCN1c1ncc([N+](=O)[O-])s1 [Niridazole, reference compound] | – | – | – | – | – | – | – | – | – | – | – | – | – | – | – | – | – | – | control reversion frequency ([1]; TA100, -S9, 0.2 μg/plate): 637 ± 57 Revertants/plate; control reversion frequency ([2]; TA100, -S9, 0.2 μg/plate): 729 ± 30 Revertants/plate; control reversion frequency ([3]; TA98, -S9, 0.2 μg/plate): 126 ± 7 Revertants/plate; control reversion frequency ([4]; TA98, -S9, 0.2 μg/plate): 358 ± 19 Revertants/plate
6 | CC(C)(C)CC(C)(C)c1ccc(OCCOCC[N+](C)(C)Cc2ccccc2)cc1 [Benzethonium Chloride, reference compound] | 2/10 | + (1-10) | 0 CFU/ml | 9/10 | ++ (11-100) | 1/10 | + (1-10) | 0/10 | + (1-10) | 0 CFU/ml | 8/10 | ++ (11-100) | 0/10 | + (1-10) | 0 CFU/ml | 5/10 | ++ (11-100) | 10 CFU/ml | Wash H2O, chicken legs producing the notated number of colonies ([7]; 0.5%): 0/10; Wash H2O, chicken legs producing the notated number of colonies ([7]; 1.0%): 0/10; preventing attachment of S. typhimurium on chicken skin (in words) [8]: most effective in preventing Salmonella contamination of chicken skin; Nitrocellulose lift (# of colonies) [8]: 250 # of colonies
7 | C[C@H](CCC(=O)O)[C@H]1CC[C@H]2[C@@H]3CC[C@@H]4C[C@H](O)CC[C@]4(C)[C@H]3C[C@H](O)[C@]12C [Deoxycholic Acid, reference compound] | 10/10 | + (1-10) | ++ (11-100) | 10/10 | ++ (11-100) | 10/10 | ++ (11-100) | 10/10 | + (1-10) | + (1-10) | 10/10 | + (1-10) | 10/10 | + (1-10) | ++ (11-100) | 9/10 | ++ (11-100) | 90 CFU/ml | Wash H2O, chicken legs producing the notated number of colonies ([7]; 0.5%): 10/10; Wash H2O, colonies ([7]; 0.5%): ++ (11-100); Wash H2O, chicken legs producing the notated number of colonies ([7]; 1.0%): 10/10; Wash H2O, colonies ([7]; 1.0%): ++ (11-100)
